Assay results taken from paper PMC6419571, “Discovery and lead optimisation of a potent, selective and orally bioavailable RARβ agonist for the potential treatment of nerve injury” (Bioorganic & Medicinal Chemistry Letters, 2019).

Experiments:
Assay type in all cases: cell-based
RARα = biological target: T1, RARα (Mus musculus, UniProt P11416); assay: RAR alpha transactivation assay (gal4-RAR LBD fusion, luciferase reporter, COS-7 cells); conditions: mouse RAR ligand binding domain; usually three experiments; read-out: α EC50
T1 construct: expressed in transfected cells; host or cells: COS-7
T1 sequence (P11416 183-417 limits assumed): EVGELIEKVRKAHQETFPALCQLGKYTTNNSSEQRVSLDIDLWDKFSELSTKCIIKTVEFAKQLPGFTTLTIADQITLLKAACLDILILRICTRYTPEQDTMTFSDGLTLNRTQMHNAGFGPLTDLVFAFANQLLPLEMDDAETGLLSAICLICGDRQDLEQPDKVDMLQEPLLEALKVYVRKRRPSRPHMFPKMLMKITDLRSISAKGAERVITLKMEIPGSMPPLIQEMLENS
Method: (§1) Compounds were tested in transactivation assays at the RAR α, β and γ receptors.
(§2) Transactivation assays for RAR alpha, beta and gamma receptors:
(§3) Transcriptional transactivation assays have been performed with gal4 fusion receptor constructs, created using each of the mouse RAR ligand-binding domains, co-transfected with the pFR-luc (Stratagene) reporter construct in COS-7 cells.
(§4) Briefly, on day one, 96 well plates were seeded with 8000 cells per well then left to recover overnight. On day two, the cells were co-transfected with 100ng of reporter plasmid and 10ng of the appropriate receptor plasmid per well using lipofectamine (Invitrogen). On day three, the lipofectamine containing media was replaced by a DMEM without phenol red, followed by the addition of novel compounds dissolved in 1µl of DMSO to each well’s 100µl total volume. Finally, on day four, the cells were lysed and their luciferase substrate was provided by the BrightGlo reagent (Promega), the plates were then read on the MicroBeta TriLux (Perkin Elmer).
(§5) Data for test compounds are quoted as EC50 values. Where replicate data has been generated the data are quoted as the mean EC50 from the separate experiments.

RARβ = biological target: T2, RARβ (Mus musculus, UniProt P22605); assay: RAR beta transactivation assay (gal4-RAR LBD fusion, luciferase reporter, COS-7 cells); conditions: for Fold selectivity for β over γ: EC50 ratio of γ to β; for Fold selectivity for β over γ / Fold selectivity for β over α: mouse; for EC50: mouse RAR ligand binding domain, usually three experiments, read-out: β EC50; for Fold selectivity for β over α: EC50 ratio of α to β, Tables 1 and 4
T2 construct: expressed in transfected cells; host or cells: COS-7
T2 sequence (P22605 210-444 limits assumed): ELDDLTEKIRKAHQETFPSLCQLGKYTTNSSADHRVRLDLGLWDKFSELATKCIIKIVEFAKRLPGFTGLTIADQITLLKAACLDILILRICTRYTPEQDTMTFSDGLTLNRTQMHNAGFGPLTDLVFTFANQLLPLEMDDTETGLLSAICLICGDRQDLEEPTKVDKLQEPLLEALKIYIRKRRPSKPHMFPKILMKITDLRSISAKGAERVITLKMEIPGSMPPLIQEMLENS
Method: as §1, §2, §3, §4, §5

RARγ = biological target: T3, RARγ (Mus musculus, UniProt P18911); assay: RAR gamma transactivation assay (gal4-RAR LBD fusion, luciferase reporter, COS-7 cells); conditions: mouse RAR ligand binding domain; Tables 1 and 4; read-out: γ EC50
T3 construct: expressed in transfected cells; host or cells: COS-7
T3 sequence (P18911 185-419 limits assumed): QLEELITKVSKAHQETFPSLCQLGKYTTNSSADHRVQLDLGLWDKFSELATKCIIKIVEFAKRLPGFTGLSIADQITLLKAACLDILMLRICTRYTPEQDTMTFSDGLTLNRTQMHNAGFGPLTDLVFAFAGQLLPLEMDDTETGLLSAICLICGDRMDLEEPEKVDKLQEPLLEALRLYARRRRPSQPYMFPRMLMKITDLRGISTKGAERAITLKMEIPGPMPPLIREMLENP
Method: as §1, §2, §3, §4, §5

Row | SMILES | EC50 (RARα) [nM] | Fold selectivity for β over γ (RARβ) | EC50 (RARβ) [nM] | Fold selectivity for β over α (RARβ) | EC50 (RARγ) [nM] | fold more potent than 1 as an RARβ agonist (RARβ; relative to amide 1) [fold] | fold loss in potency as a RARβ agonist relative to 5 (RARβ; relative to 5) [fold]
1 | CC1(C)CCC(C)(C)c2cc(-c3nc(-c4ccc(C(=O)O)cc4)no3)ccc21 [Compound 8] | 18 | 0.0041 | 4200 |  |  |  | > 2700
2 | CCOc1c(Cl)cc(-c2nc(-c3ccc(C(=O)O)cc3)no2)cc1Cl [Compound 5] | 18 | 19 | 1.5 | 12 | 28 |  | 
3 | Cc1ccc(C)c2oc(-c3nc(-c4ccc(C(=O)O)cc4F)no3)cc12 [Compound 16] | 61 | 0.33 | 11 |  |  |  | 
4 | Cc1cc(C(=O)O)ccc1-c1noc(-c2cc3c(C)ccc(C)c3o2)n1 [Compound 17] | 600 | 0.3 | 47 |  |  |  | 
5 | CCOc1c(Cl)cc(C(=O)Nc2ccc(C(=O)O)cc2)cc1Cl [Compound 1, 4-[(3,5-dichloro-4-ethoxybenzoyl)amino]benzoic acid] | 46 | 24 | 1230 | 0.037 |  |  | 
6 | Cc1cc(-c2noc(-c3cc4c(C)ccc(C)c4o3)n2)ccc1C(=O)O [Compound 15] | 89 | 1.8 | 14 |  |  |  | 
7 | CCCCOCCOc1nc(-c2ccc(C(=O)O)c(F)c2)sc1C [AC 261066, reference compound] | 70 | 2.8 | 12 | 5.8 | 33 |  | 
8 | Cc1ccc(C)c2oc(-c3nc(-c4ccc(C(=O)O)cc4)no3)nc12 [Compound 13] | 114 | 7.5 | 11 |  |  |  | 
9 | Cc1ccc(C)c2oc(-c3nc(-c4ccc(C(=O)O)c(F)c4)no3)cc12 [Compound 14] | 16 | 3.8 | 2.2 |  |  |  | 
10 | CCOc1c(Cl)cc(-c2nnc(-c3ccc(C(=O)O)cc3)o2)cc1Cl [Compound 7] | 58 | 2.4 | 63 | 0.92 |  |  | 
11 | CCOc1c(Cl)cc(-c2noc(-c3ccc(C(=O)O)cc3)n2)cc1Cl [Compound 6] | 31 | 0.05 | 110 | 0.28 |  |  | 
12 | O=C(O)c1ccc(-c2noc(-c3cc4c(C(F)(F)F)ccc(F)c4o3)n2)cc1 [Compound 11] | 19 | 2 | 2.5 |  |  |  | 

Continued, in another order:

Row | EC50 (RARα) [nM] | Fold selectivity for β over γ (RARβ) | EC50 (RARβ) [nM] | Fold selectivity for β over α (RARβ) | EC50 (RARγ) [nM] | fold more potent than 1 as an RARβ agonist (RARβ; relative to amide 1) [fold] | SMILES | fold loss in potency as a RARβ agonist relative to 5 (RARβ; relative to 5) [fold]
13 | 30 | 2 | 3.4 |  |  |  | Cc1ccc(C)c2sc(-c3nc(-c4ccc(C(=O)O)cc4)no3)cc12 [Compound 12] | 
14 | 9.2 |  | 0.83 |  | 1.6 |  | COc1ccc(-c2ccc3cc(C(=O)O)ccc3c2)cc1C1(C)CCCCC1 [CD 2019, reference compound] | 
15 | 240 | 1.3 | 120 | 2 |  |  | CCOc1c(Cl)cc(-c2csc(-c3ccc(C(=O)O)cc3)n2)cc1Cl [Compound 2] | 
16 | 4 | 2.1 | 1.4 |  |  |  | CC(C)(C)c1cc(-c2nc(-c3ccc(C(=O)O)cc3)no2)cc(C(C)(C)C)c1 [Compound 9] | 
17 | 60 | 1.6 | 28 | 2.1 |  | > 40 | CCOc1c(Cl)cc(-c2cnc(-c3ccc(C(=O)O)cc3)o2)cc1Cl [Compound 4] | 
18 | 594 |  | 423 | 1.4 |  |  | CCOc1c(Cl)cc(-c2c[nH]c(-c3ccc(C(=O)O)cc3)n2)cc1Cl [Compound 3] | 
